Assay results: ChEMBL document CHEMBL5038673, “Novel Tricyclic Heteroaryl Compounds as IRAK4 Inhibitors for Treating Cancer, Autoimmune and Inflammatory Diseases” (ACS Med Chem Lett, 2022)

Target: T1, Interleukin-1 receptor-associated kinase 4 (Homo sapiens, UniProt Q9NWZ3)
T1 sequence (Q9NWZ3 whole entry): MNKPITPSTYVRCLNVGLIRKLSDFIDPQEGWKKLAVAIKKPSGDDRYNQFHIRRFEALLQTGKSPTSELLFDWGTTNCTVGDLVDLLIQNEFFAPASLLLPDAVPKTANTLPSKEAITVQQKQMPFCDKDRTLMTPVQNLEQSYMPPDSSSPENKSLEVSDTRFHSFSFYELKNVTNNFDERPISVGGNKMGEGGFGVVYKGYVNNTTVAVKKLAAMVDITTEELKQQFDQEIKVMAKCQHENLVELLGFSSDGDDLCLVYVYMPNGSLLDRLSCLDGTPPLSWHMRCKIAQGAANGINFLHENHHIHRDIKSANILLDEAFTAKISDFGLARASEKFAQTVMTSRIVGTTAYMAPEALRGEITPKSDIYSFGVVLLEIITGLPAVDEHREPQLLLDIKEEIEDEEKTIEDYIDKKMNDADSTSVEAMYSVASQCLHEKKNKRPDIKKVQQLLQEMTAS
Assay: Inhibition of IRAK4 (unknown origin) using FL- IPTSPITTTYFFFKKK peptide as substrate in presence of ATP incubated for 60 mins by fluorescence assay

IC50: 1.9 nM
Compound: CC(C)Nc1c(C(=O)NCCC2CCNC2)cnc2c1[nH]c1cc(C#N)ccc12 (stereo unspecified)
